Experimental data taken from patent US20050197350A1, “Novel quinoline, tetrahydroquinazoline, and pyrimidine derivatives and methods of treatment related to the use thereof” (TAISHO PHARMACEUTICAL CO., LTD., priority 2003, published 2005).

What follows are compounds tested on MCH receptors (assay: MCH receptor activity class (method not given)). Details: MCH receptor; class by percent of control at 10^-7 M or IC50.
`CN(C)c1cc(N[C@H]2CC[C@@H](NC(=O)c3ccc(F)c(F)c3)CC2)nc2ccccc12` [compound 33, N-(cis-4-{[4-(dimethylamino)quinolin-2-yl]amino}cyclohexyl)-3,4-difluorobenzamide] was tested, and the class was 1 (Class 1: The value of percent of control at 10^−7 M was less than 40% or the value of IC50 was less than 50 nM.).
In the case of `CN(C)c1cc(N[C@H]2CC[C@@H](NC(=O)c3cc(F)cc(F)c3)CC2)nc2ccccc12` [compound 34, N-(cis-4-{[4-(dimethylamino)quinolin-2-yl]amino}cyclohexyl)-3,5-difluorobenzamide], the class is reported as 2 (Class 2: The value of percent of control at 10^−7 M was from 40% to 60% or the value of IC′50 was from 50 nM to 200 nM.).
In the case of `COc1ccc(OC)c(CC(=O)N[C@H]2CC[C@@H](Nc3cc(N(C)C)c4ccccc4n3)CC2)c1` [compound 35], the class is reported as 3 (Class 3 The value of percent of control at 10^−7 M was more than 60% or the value of IC50 was more than 200 nM.).
In the case of `CCSc1ncccc1C(=O)N[C@H]1CC[C@@H](Nc2cc(N(C)C)c3ccccc3n2)CC1` [compound 36], the class is reported as 3 (Class 3 The value of percent of control at 10^−7 M was more than 60% or the value of IC50 was more than 200 nM.).
In the case of `CN(C)c1cc(N[C@H]2CC[C@@H](NC(=O)c3ccc(F)cc3)CC2)nc2ccccc12` [compound 37, N-(cis-4-{[4-(dimethylamino)quinolin-2-yl]amino}cyclohexyl)-4-fluorobenzamide], the class is reported as 1 (Class 1: The value of percent of control at 10^−7 M was less than 40% or the value of IC50 was less than 50 nM.).
With `CN(C)c1cc(N[C@H]2CC[C@@H](NC(=O)c3cc(F)cc(C(F)(F)F)c3)CC2)nc2ccccc12` [compound 38, N-(cis-4-{[4-(dimethylamino)quinolin-2-yl]amino}cyclohexyl)-3-fluoro-5-(trifluoromethyl)benzamide] the class was 2 (Class 2: The value of percent of control at 10^−7 M was from 40% to 60% or the value of IC′50 was from 50 nM to 200 nM.).
In the case of `CN(C)c1cc(N[C@H]2CC[C@@H](NC(=O)c3cc(F)c(Cl)cc3Cl)CC2)nc2ccccc12` [compound 39], the class is reported as 3 (Class 3 The value of percent of control at 10^−7 M was more than 60% or the value of IC50 was more than 200 nM.).
`CCCCCC(=O)N[C@H]1CC[C@@H](Nc2cc(N(C)C)c3ccccc3n2)CC1` [compound 40] was tested, and the class was 3 (Class 3 The value of percent of control at 10^−7 M was more than 60% or the value of IC50 was more than 200 nM.).
For `CN(C)c1cc(N[C@H]2CC[C@@H](NC(=O)c3ccc(I)cc3)CC2)nc2ccccc12` [compound 41], the class was 3 (Class 3 The value of percent of control at 10^−7 M was more than 60% or the value of IC50 was more than 200 nM.).
In the case of `CSc1ncccc1C(=O)N[C@H]1CC[C@@H](Nc2cc(N(C)C)c3ccccc3n2)CC1` [compound 42], the class is reported as 3 (Class 3 The value of percent of control at 10^−7 M was more than 60% or the value of IC50 was more than 200 nM.).
For `Cc1ccc(C(=O)N[C@H]2CC[C@@H](Nc3cc(N(C)C)c4ccccc4n3)CC2)cc1[N+](=O)[O-]` [compound 43, N-(cis-4-{[4-(dimethylamino)quinolin-2-yl]amino}cyclohexyl)-4-methyl-3-nitrobenzamide], the class was 2 (Class 2: The value of percent of control at 10^−7 M was from 40% to 60% or the value of IC′50 was from 50 nM to 200 nM.).
`CN(C)c1cc(N[C@H]2CC[C@@H](NC(=O)c3cccc([N+](=O)[O-])c3)CC2)nc2ccccc12` [compound 44, N-(cis-4-{[4-(dimethylamino)quinolin-2-yl]amino}cyclohexyl)-3-nitrobenzamide] was tested, and the class was 1 (Class 1: The value of percent of control at 10^−7 M was less than 40% or the value of IC50 was less than 50 nM.).
In the case of `CN(C)c1cc(N[C@H]2CC[C@@H](NC(=O)Cc3ccccc3)CC2)nc2ccccc12` [compound 45, N-(cis-4-{[4-(dimethylamino)quinolin-2-yl]amino}cyclohexyl)-2-phenlacetamide], the class is reported as 3 (Class 3 The value of percent of control at 10^−7 M was more than 60% or the value of IC50 was more than 200 nM.).
With `CN(C)c1cc(N[C@H]2CC[C@@H](NC(=O)C3C[C@H]3c3ccccc3)CC2)nc2ccccc12` (stereo partly drawn) [compound 46] the class was 3 (Class 3 The value of percent of control at 10^−7 M was more than 60% or the value of IC50 was more than 200 nM.).
In the case of `CN(C)c1cc(N[C@H]2CC[C@@H](NC(=O)c3ccc4c(c3)OCO4)CC2)nc2ccccc12` [compound 47], the class is reported as 3 (Class 3 The value of percent of control at 10^−7 M was more than 60% or the value of IC50 was more than 200 nM.).
`Cc1cccc(C(=O)N[C@H]2CC[C@@H](Nc3cc(N(C)C)c4ccccc4n3)CC2)c1` [compound 50, N-(cis-4-{[4-(dimethylamino)quinolin-2-yl]amino}cyclohexyl)-3-methylbenzamide] was tested, and the class was 1 (Class 1: The value of percent of control at 10^−7 M was less than 40% or the value of IC50 was less than 50 nM.).
`Cc1ccc(C(=O)N[C@H]2CC[C@@H](Nc3cc(N(C)C)c4ccccc4n3)CC2)cc1` [compound 51] was tested, and the class was 3 (Class 3 The value of percent of control at 10^−7 M was more than 60% or the value of IC50 was more than 200 nM.).
For `CN(C)c1cc(N[C@H]2CC[C@@H](NC(=O)c3cccs3)CC2)nc2ccccc12` [compound 52], the class was 3 (Class 3 The value of percent of control at 10^−7 M was more than 60% or the value of IC50 was more than 200 nM.).
With `CN(C)c1cc(N[C@H]2CC[C@@H](NC(=O)Cc3cccs3)CC2)nc2ccccc12` [compound 53] the class was 3 (Class 3 The value of percent of control at 10^−7 M was more than 60% or the value of IC50 was more than 200 nM.).
With `CN(C)c1cc(N[C@H]2CC[C@@H](NC(=O)c3cccc(OC(F)(F)F)c3)CC2)nc2ccccc12` [compound 54, N-(cis-4-{[4-(dimethylamino)quinolin-2-yl]amino}cyclohexyl)-3-(trifluoromethoxy)benzamide] the class was 2 (Class 2: The value of percent of control at 10^−7 M was from 40% to 60% or the value of IC′50 was from 50 nM to 200 nM.).
For `CN(C)c1cc(N[C@H]2CC[C@@H](NC(=O)OCc3ccccc3)CC2)nc2ccccc12` [compound 55], the class was 3 (Class 3 The value of percent of control at 10^−7 M was more than 60% or the value of IC50 was more than 200 nM.).
`CN(C)c1cc(N[C@H]2CC[C@@H](NC(=O)OCc3ccc([N+](=O)[O-])cc3)CC2)nc2ccccc12` [compound 56] was tested, and the class was 3 (Class 3 The value of percent of control at 10^−7 M was more than 60% or the value of IC50 was more than 200 nM.).
For `Cc1cc(C(=O)N[C@H]2CC[C@@H](Nc3cc(N(C)C)c4ccccc4n3)CC2)ccc1Br` [compound 57, 4-bromo-N-(cis-4-{[4-(dimethylamino)quinolin-2-yl]amino}cyclohexyl)-3-methylbenzamide], the class was 1 (Class 1: The value of percent of control at 10^−7 M was less than 40% or the value of IC50 was less than 50 nM.).
`CN(C)c1cc(N[C@H]2CC[C@@H](NC(=O)c3cccc(I)c3)CC2)nc2ccccc12` [compound 58, N-(cis-4-{[4-(dimethylamino)quinolin-2-yl]amino}cyclohexyl)-3-iodobenzamide] was tested, and the class was 2 (Class 2: The value of percent of control at 10^−7 M was from 40% to 60% or the value of IC′50 was from 50 nM to 200 nM.).
`CN(C)c1cc(N[C@H]2CC[C@@H](NC(=O)c3cccc(Cl)c3F)CC2)nc2ccccc12` [compound 59] was tested, and the class was 3 (Class 3 The value of percent of control at 10^−7 M was more than 60% or the value of IC50 was more than 200 nM.).
`Cc1ccc(C(=O)N[C@H]2CC[C@@H](Nc3cc(N(C)C)c4ccccc4n3)CC2)c(F)c1F` [compound 60] was tested, and the class was 3 (Class 3 The value of percent of control at 10^−7 M was more than 60% or the value of IC50 was more than 200 nM.).
In the case of `CN(C)c1cc(N[C@H]2CC[C@@H](NC(=O)c3ccc(F)cc3Cl)CC2)nc2ccccc12` [compound 61], the class is reported as 3 (Class 3 The value of percent of control at 10^−7 M was more than 60% or the value of IC50 was more than 200 nM.).
In the case of `CN(C)c1cc(N[C@H]2CC[C@@H](NC(=O)c3ccc(F)c(Cl)c3F)CC2)nc2ccccc12` [compound 62, 3-chloro-N-(cis-4-{[4-(dimethylamino)quinolin-2-yl]amino}cyclohexyl)-2,4-difluorobenzamide], the class is reported as 2 (Class 2: The value of percent of control at 10^−7 M was from 40% to 60% or the value of IC′50 was from 50 nM to 200 nM.).
In the case of `CN(C)c1cc(N[C@H]2CC[C@@H](NC(=O)CSc3ccccc3)CC2)nc2ccccc12` [compound 63], the class is reported as 3 (Class 3 The value of percent of control at 10^−7 M was more than 60% or the value of IC50 was more than 200 nM.).
In the case of `CN(C)c1cc(N[C@H]2CC[C@@H](NC(=O)c3cccc(C(F)(F)F)c3F)CC2)nc2ccccc12` [compound 64], the class is reported as 3 (Class 3 The value of percent of control at 10^−7 M was more than 60% or the value of IC50 was more than 200 nM.).
In the case of `CN(C)c1cc(N[C@H]2CC[C@@H](NC(=O)c3cc(C(F)(F)F)ccc3F)CC2)nc2ccccc12` [compound 65], the class is reported as 3 (Class 3 The value of percent of control at 10^−7 M was more than 60% or the value of IC50 was more than 200 nM.).
With `COc1cccc(CC(=O)N[C@H]2CC[C@@H](Nc3cc(N(C)C)c4ccccc4n3)CC2)c1` [compound 67] the class was 3 (Class 3 The value of percent of control at 10^−7 M was more than 60% or the value of IC50 was more than 200 nM.).
For `CN(C)c1cc(N[C@H]2CC[C@@H](NC(=O)Cc3ccc(F)cc3)CC2)nc2ccccc12` [compound 68], the class was 3 (Class 3 The value of percent of control at 10^−7 M was more than 60% or the value of IC50 was more than 200 nM.).
With `COc1ccc(CC(=O)N[C@H]2CC[C@@H](Nc3cc(N(C)C)c4ccccc4n3)CC2)cc1` [compound 69] the class was 3 (Class 3 The value of percent of control at 10^−7 M was more than 60% or the value of IC50 was more than 200 nM.).
In the case of `Cc1cc(C(=O)N[C@H]2CC[C@@H](Nc3cc(N(C)C)c4ccccc4n3)CC2)c(C(F)(F)F)o1` [compound 70], the class is reported as 3 (Class 3 The value of percent of control at 10^−7 M was more than 60% or the value of IC50 was more than 200 nM.).
In the case of `Cc1cc(C(=O)N[C@H]2CC[C@@H](Nc3cc(N(C)C)c4ccccc4n3)CC2)c(C)o1` [compound 71, N-(cis-4-{[4-(dimethylamino)quinolin-2-yl]amino}cyclohexyl)-2,5-dimethyl-3-furamide], the class is reported as 1 (Class 1: The value of percent of control at 10^−7 M was less than 40% or the value of IC50 was less than 50 nM.).
